Key:
[1] = test system: normal cord blood CD34+ cells engrafted in Rag2−/−γc−/− mice; experiment: Normal HSPC in vivo model (cord blood CD34+ cell engrafted mice); parameters: species or system mouse; conditions: 10 mg/kg versus vehicle
Protocol: All animal studies were performed in accordance with UCSD and NIH-equivalent ethical guidelines and were approved by the Institutional Animal Care and Use Committee (IACUC protocol # S06015). For all in vivo experiments, animals of both genders were utilized. […] At 7-28 weeks post-transplant (7-36 weeks old), mice were euthanized, and peripheral blood and single cell suspensions of hematopoietic organs were analyzed for human cell engraftment by FACS. […] Treatment was initiated at 8 weeks post-transplant, and at 10 weeks post-transplant, mice were euthanized, and peripheral blood and single cell suspensions of hematopoietic organs were analyzed for human cell engraftment by FACS. […]
Flow cytometric analysis was performed on single cell suspensions from each hematopoietic tissue essentially as for primary patient samples, and frequencies of total live human CD45+ cells, CD45+ CD34+ CD38− Lin− (stem) cells, CD45+ CD34+ CD38+ Lin− (progenitor) cells, and CD45+/CD33+ (leukemic blasts) were determined in each tissue. […]

[2] = Mouse weights over the two-week treatment period (tolerability); assay type: in vivo; conditions: 5-10 mg/kg intravenously, three doses over two weeks
Protocol: For in vivo treatments, a 10 mg/mL stock solution of 17S-FD-895 solubilized in DMSO was used. After randomization, AML-engrafted mice were dosed intravenously with 17S-FD-895 (5-10 mg/kg) or vehicle (for AML-08, vehicle control=15% DMSO in PBS; for AML-37, vehicle control=20% DMSO in PBS) three times over a two-week period, with the first dose given on day 1, the second on day 7, and the third on day 14. For preparation of RNA from human LSC-enriched populations, single cell suspensions from spleen and bone marrow were CD34 double-selected (over two LS selection columns, Miltenyi) and 1-2×10^5 cells were collected in lysis buffer or pooled according to treatment group for serial transplantation assays.
All animal studies were performed in accordance with UCSD and NIH-equivalent ethical guidelines and were approved by the Institutional Animal Care and Use Committee. Three AML PRIMAGRAFT™ models were established from AML LSC-enriched cell fractions (1-2×10^5 CD34^+ cells) transplanted intrahepatically into neonatal Rag2^−/−γc^−/− as previously described (Abrahamsson et al., 2009), or intravenously into sublethally irradiated adult (6-8 weeks old) NOD/SCID-IL2RG mice (NSGS, Jackson Laboratory). […] After treatment, hematopoietic tissues were analyzed as described following. […]

[3] = Villa et al., Org Lett 2012; cited from earlier work

SMILES: CC[C@H](OC)[C@@H](C)[C@H]1O[C@@H]1[C@@H](O)[C@H](C)/C=C/C=C(\C)[C@H]1OC(=O)C[C@H](O)CC[C@@](C)(O)[C@@H](OC(C)=O)/C=C/[C@@H]1C (stereo in doubt) [Formula 17S-FD-895, 17S-FD-895]
- total human hematopoietic cell or HSPC survival [1]: no effect
- tolerability / weight changes [2]: well tolerated, with no significant weight changes detected
- activity over FD-895 [3]: 25 fold

From patent publication US10675267B2, “Methods for detection and eradication of myeloid leukemia stem cells” (priority 2015, dated 2020)
